Laboratory results reported in patent US11345691B2, “Prodrug modulators of the cystic fibrosis transmembrane conductance regulator protein and methods of use” (AbbVie Global Enterprises Ltd., priority 2019, dated 2022).

Assay: Phase 1 first-in-human single ascending dose pharmacokinetic study (Pharmacokinetic Study 1)
Type: in vivo
Conditions: after single oral 250 mg or 500 mg dose of Example 4—Prodrug; healthy adult subjects
Procedure: Evaluate the PK profile of Example 4, which is a prodrug of (5-{3-amino-5-[4-(trifluoromethoxy)benzene-1-sulfonyl]pyridin-2-yl}-1,3,4-oxadiazol-2-yl)methanol, in healthy human adult subjects.
Two open label Phase 1, first in human studies in adult healthy subjects were conducted to evaluate the safety, tolerability, and pharmacokinetics of single oral doses of Example 1 administered as an oral suspension and prodrug Example 4 capsule, respectively. Subjects were screened and enrolled based on pre-specified criteria for inclusion and exclusion. The safety in subjects was determined by clinical evaluation and by monitoring of laboratory parameters. Blood samples were longitudinally collected at pre-specified time points following the administration of Example 1 or Example 4—Prodrug to measure the plasma concentrations of study drug and determine the pharmacokinetics of Example 1 and Example 4—Prodrug.
For this study the inclusion criteria includes the following: • 1. […]
Plasma concentrations of Example 1 and Example 4—Prodrug were determined using validated methods. The values for the pharmacokinetic parameters of Example 1 or Example 4—Prodrug were determined using noncompartmental methods with WinNonlin Phoenix 8.1.

Plasma concentrations of intact Example 4—Prodrug: no quantifiable plasma concentrations
SMILES: CC(C)[C@H](N)C(=O)OCc1nnc(-c2ncc(S(=O)(=O)c3ccc(OC(F)(F)F)cc3)cc2N)o1 [Example 4, (5-{3-amino-5-[4-(trifluoromethoxy)benzene-1-sulfonyl]pyridin-2-yl}-1,3,4-oxadiazol-2-yl)methyl (2S)-2-amino-3-methylbutanoate]
